According to patent US9549927B2, “Heteroaryl compounds and uses thereof” (Celgene Avilomics Research, Inc., priority 2012, dated 2017):

Target: T1, full-length recombinant human Btk protein (Homo sapiens, UniProt Q06187)
T1 construct: The full-length recombinant human Btk protein; purchased Invitrogen (Carlsbad, Calif.) Lot #619547Q (catalogue number not given)
Experiment: Covalent bonding assay, intact protein MALDI mass spectrometry
Type: binding
Conditions: 60 minutes incubation, 10-fold excess of compound to protein, room temperature
Experimental: The following example describes testing certain compounds to determine whether they covalently bind to BTK. The full-length recombinant human Btk protein (Lot #619547Q; 0.35 mg/mL) was obtained from Invitrogen (Carlsbad, Calif.). Btk protein was diluted 2:3 in phosphate-buffered saline and stock concentration (10 mM) of compound was diluted 1:115 in 50% DMSO.
For all compounds, 1 μL of diluted compound was added to 5 μL of diluted protein. These mixtures were then incubated for 60 minutes at a 10-fold excess of compound to protein under room temperature (˜24° C.) conditions.
At the end of the incubation, 5 μL aliquots of the samples were diluted with 15 μL of 0.2% TFA prior to micro C4 ZipTipping® directly onto the MALDI target plate using sinapinic acid as the desorption matrix (10 mg/mL in 0.2% TFA:Acetonitrile 50:50). Samples were immediately analyzed on an ABSciex 4800 MALDI TOF-TOF mass spectrometer.
For intact protein mass measurement, the mass spectrometer was set in linear mode using a pulsed extraction setting of 81,500. Bovine serum albumin (BSA; Sigma, St Louis, Mo.) was used as the standard to calibrate the instrument. These values correspond to the percentage of total protein covalently modified by the tested compound after one hour incubation.

T1 sequence (Q06187 whole entry): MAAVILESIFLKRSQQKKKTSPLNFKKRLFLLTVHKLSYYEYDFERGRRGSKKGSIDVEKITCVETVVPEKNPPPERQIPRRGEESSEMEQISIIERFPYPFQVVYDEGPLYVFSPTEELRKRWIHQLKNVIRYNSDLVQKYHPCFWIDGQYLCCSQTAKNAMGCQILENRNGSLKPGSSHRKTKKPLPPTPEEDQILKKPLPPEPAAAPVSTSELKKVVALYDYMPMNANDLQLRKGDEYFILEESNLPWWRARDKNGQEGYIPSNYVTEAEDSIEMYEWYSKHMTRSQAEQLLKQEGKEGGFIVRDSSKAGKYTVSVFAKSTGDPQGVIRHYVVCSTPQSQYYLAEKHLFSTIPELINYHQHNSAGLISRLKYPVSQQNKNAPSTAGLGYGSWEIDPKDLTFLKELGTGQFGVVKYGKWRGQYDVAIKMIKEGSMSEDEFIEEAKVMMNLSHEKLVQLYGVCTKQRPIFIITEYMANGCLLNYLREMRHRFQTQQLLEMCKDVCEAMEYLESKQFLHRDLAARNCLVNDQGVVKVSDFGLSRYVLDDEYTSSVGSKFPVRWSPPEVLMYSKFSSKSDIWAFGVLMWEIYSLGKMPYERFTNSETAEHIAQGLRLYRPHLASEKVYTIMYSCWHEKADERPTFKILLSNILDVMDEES

Structure (SMILES) | MS % modification
C=CC(=O)Nc1cccc(Nc2nc(Nc3ccc(OCCO)cc3)ncc2F)c1 [Compound I-1, N-(3-((5-fluoro-2-((4-(2-hydroxyethoxyl)phenyl)amino)pyrimidin-4-yl)amino)phenyl)acrylamide] | B (31-69% modification)
COCCOc1ccc(Nc2ncc(F)c(Nc3cccc(NC(=O)C4CO4)c3)n2)cc1 (stereo not drawn) [Compound I-19, N-(3-((5-fluoro-2-((4-(2-methoxyethoxyl)phenyl)amino)pyrimidin-4-yl)amino)phenyl)oxirane-2-carboxamide] | A (>70% modification)

Other lines, results leading:

MS % modification | Structure (SMILES)
A (>70% modification) | C=CC(=O)Nc1cccc(Nc2nc(Nc3ccc(O)cc3)ncc2F)c1 [Compound I-3, N-(3-((5-fluoro-2-((4-hydroxyphenyl)amino)pyrimidin-4-yl)amino)phenyl)acrylamide]
C (<30% modification) | COCCOc1ccc(Nc2ncc(F)c(Nc3cccc(NC(=O)C(O)CO)c3)n2)cc1 (stereo not drawn) [Compound I-4, N-(3-((5-fluoro-2-((4-(2-methoxyethoxyl)phenyl)amino)pyrimidin-4-yl)amino)phenyl)-2,3-dihydroxypropanamide]
C (<30% modification) | O=C(Nc1cccc(Nc2nc(Nc3ccc(OCCO)cc3)ncc2F)c1)C(O)CO (stereo not drawn) [Compound I-5, N-(3-((5-fluoro-2-((4-(2-hydroxyethoxyl)phenyl)amino)pyrimidin-4-yl)amino)phenyl)-2,3-dihydroxypropanamide]
C (<30% modification) | O=C(Nc1cccc(Nc2nc(Nc3ccc(O)cc3)ncc2F)c1)C(O)CO (stereo not drawn) [Compound I-6, N-(3-((5-fluoro-2-((4-hydroxyphenyl)amino)pyrimidin-4-yl)amino)phenyl)-2,3-dihydroxypropanamide]
